Results taken from ChEMBL document CHEMBL4304811, “Development of a Water-Soluble Indolylmaleimide Derivative IM-93 Showing Dual Inhibition of Ferroptosis and NETosis” (ACS Med Chem Lett, 2019).

Tests used:
[1] = target: Tyrosine-protein kinase Fes/Fps (Homo sapiens) (UniProt P07332); assay: Binding affinity to wild-type human partial length FES (I527 to R822 residues) expressed in bacterial expression system assessed as residual binding level at 10 uM by Kinomescan method relative to control
[2] = target: Serine/threonine-protein kinase TAO3 (Homo sapiens) (UniProt Q9H2K8); assay: Binding affinity to wild-type human partial length TAOK3 (M1 to T316 residues) expressed in mammalian expression system assessed as residual binding level at 10 uM by Kinomescan method relative to control
[3] = target: Cyclin-dependent kinase-like 1 (Homo sapiens) (UniProt Q00532); assay: Binding affinity to wild-type human full length CDKL1 (M1 to I358 residues) expressed in mammalian expression system assessed as residual binding level at 10 uM by Kinomescan method relative to control
[4] = target: Membrane-associated tyrosine- and threonine-specific cdc2-inhibitory kinase (Homo sapiens) (UniProt Q99640); assay: Binding affinity to wild-type human partial length PKMYT1 (A88 to G366 residues) expressed in bacterial expression system assessed as residual binding level at 10 uM by Kinomescan method relative to control
[5] = tested on: Tyrosine-protein kinase ABL1 (Homo sapiens), P00519 [Q252H]; assay: Binding affinity to human phosphorylated ABL1 Q252H mutant expressed in mammalian expression system assessed as residual binding level at 10 uM by Kinomescan method relative to control
[6] = target: Tyrosine-protein kinase JAK2 (Homo sapiens) (UniProt O60674); assay: Binding affinity to wild-type human partial length JAK2 JH1 catalytic domain (A829 to G1132 residues) expressed in mammalian expression system assessed as residual binding level at 10 uM by Kinomescan method relative to control
[7] = tested on: Fibroblast growth factor receptor 3 (Homo sapiens), P22607 [G697C]; assay: Binding affinity to human partial length FGFR3 G697C mutant (R442 to S771 residues) expressed in bacterial expression system assessed as residual binding level at 10 uM by Kinomescan method relative to control
[8] = target: Serine/threonine-protein kinase 33 (Homo sapiens) (UniProt Q9BYT3); assay: Binding affinity to wild-type human full length STK33 (M1 to L514 residues) expressed in bacterial expression system assessed as residual binding level at 10 uM by Kinomescan method relative to control
[9] = target: Ephrin type-A receptor 6 (Homo sapiens) (UniProt Q9UF33); assay: Binding affinity to wild-type human partial length EPHA6 (Y700 to E1046 residues) expressed in bacterial expression system assessed as residual binding level at 10 uM by Kinomescan method relative to control
[10] = target: Ephrin type-A receptor 8 (Homo sapiens) (UniProt P29322); assay: Binding affinity to wild-type human partial length EPHA8 (Q608 to C920 residues) expressed in bacterial expression system assessed as residual binding level at 10 uM by Kinomescan method relative to control
[11] = target: Insulin-like growth factor 1 receptor (Homo sapiens) (UniProt P08069); assay: Binding affinity to wild-type human partial length IGF1R (L972 to D1294 residues) expressed in bacterial expression system assessed as residual binding level at 10 uM by Kinomescan method relative to control
[12] = target: Phosphatidylinositol 5-phosphate 4-kinase type-2 gamma (Homo sapiens) (UniProt Q8TBX8); assay: Binding affinity to wild-type human partial length PIP5K2C (M1 to A421 residues) expressed in mammalian expression system assessed as residual binding level at 10 uM by Kinomescan method relative to control
[13] = target: Tyrosine-protein kinase Lyn (Homo sapiens) (UniProt P07948); assay: Binding affinity to wild-type human partial length LYN (C219 to Q511 residues) expressed in bacterial expression system assessed as residual binding level at 10 uM by Kinomescan method relative to control
[14] = target: Myotonin-protein kinase (Homo sapiens) (UniProt Q09013); assay: Binding affinity to wild-type human partial length DMPK (V47 to V415 residues) expressed in bacterial expression system assessed as residual binding level at 10 uM by Kinomescan method relative to control
[15] = target: Aurora kinase B (Homo sapiens) (UniProt Q96GD4); assay: Binding affinity to wild-type human partial length AURKB (D25 to A303 residues) expressed in mammalian expression system assessed as residual binding level at 10 uM by Kinomescan method relative to control
HL-60 = assay: Cytoprotection against human HL60 cells assessed as inhibition of H2O2-induced cell death pretreated for 1 hr followed by H2O2 stimulation measured after 3 hrs by p-iodonitrotetrazolium violet dye based LDH assay; type: functional
[16] = target: Serine/threonine-protein kinase ULK1 (Homo sapiens) (UniProt O75385); assay: Binding affinity to wild-type human partial length ULK1 (M1 to T309 residues) expressed in mammalian expression system assessed as residual binding level at 10 uM by Kinomescan method relative to control
[17] = target: Serine/threonine-protein kinase Nek5 (Homo sapiens) (UniProt Q6P3R8); assay: Binding affinity to wild-type human partial length NEK5 (M1 to M279 residues) expressed in bacterial expression system assessed as residual binding level at 10 uM by Kinomescan method relative to control
[18] = target: G protein-coupled receptor kinase 4 (Homo sapiens) (UniProt P32298); assay: Binding affinity to wild-type human full length GRK4 (M1 to C578 residues) expressed in bacterial expression system assessed as residual binding level at 10 uM by Kinomescan method relative to control
[19] = target: Myosin light chain kinase 2, skeletal/cardiac muscle (Homo sapiens) (UniProt Q9H1R3); assay: Binding affinity to wild-type human partial length MYLK2 (D258 to K570 residues) expressed in bacterial expression system assessed as residual binding level at 10 uM by Kinomescan method relative to control
[20] = target: Serine/threonine-protein kinase PLK2 (Homo sapiens) (UniProt Q9NYY3); assay: Binding affinity to wild-type human partial length PLK2 (H58 to F354 residues) expressed in mammalian expression system assessed as residual binding level at 10 uM by Kinomescan method relative to control
[21] = target: Ephrin type-B receptor 4 (Homo sapiens) (UniProt P54760); assay: Binding affinity to wild-type human partial length EPHB4 (H585 to G892 residues) expressed in bacterial expression system assessed as residual binding level at 10 uM by Kinomescan method relative to control
[22] = target: Phosphatidylinositol 4-phosphate 5-kinase type-1 alpha (Homo sapiens) (UniProt Q99755); assay: Binding affinity to wild-type human full length PIP5K1A (M1 to H562 residues) expressed in bacterial expression system assessed as residual binding level at 10 uM by Kinomescan method relative to control
[23] = target: Bone morphogenetic protein receptor type-1A (Homo sapiens) (UniProt P36894); assay: Binding affinity to wild-type human partial length BMPR1A (Q214 to I532 residues) expressed in bacterial expression system assessed as residual binding level at 10 uM by Kinomescan method relative to control
[24] = tested on: Receptor-type tyrosine-protein kinase FLT3 (Homo sapiens), P36888 [K663Q]; assay: Binding affinity to human partial length FLT3 K663Q mutant (V592 to Y969 residues) expressed in bacterial expression system assessed as residual binding level at 10 uM by Kinomescan method relative to control

Chain of Phosphatidylinositol 4-phosphate 5-kinase type-1 alpha (Homo sapiens) (Q99755 whole entry, the tested form may be a part): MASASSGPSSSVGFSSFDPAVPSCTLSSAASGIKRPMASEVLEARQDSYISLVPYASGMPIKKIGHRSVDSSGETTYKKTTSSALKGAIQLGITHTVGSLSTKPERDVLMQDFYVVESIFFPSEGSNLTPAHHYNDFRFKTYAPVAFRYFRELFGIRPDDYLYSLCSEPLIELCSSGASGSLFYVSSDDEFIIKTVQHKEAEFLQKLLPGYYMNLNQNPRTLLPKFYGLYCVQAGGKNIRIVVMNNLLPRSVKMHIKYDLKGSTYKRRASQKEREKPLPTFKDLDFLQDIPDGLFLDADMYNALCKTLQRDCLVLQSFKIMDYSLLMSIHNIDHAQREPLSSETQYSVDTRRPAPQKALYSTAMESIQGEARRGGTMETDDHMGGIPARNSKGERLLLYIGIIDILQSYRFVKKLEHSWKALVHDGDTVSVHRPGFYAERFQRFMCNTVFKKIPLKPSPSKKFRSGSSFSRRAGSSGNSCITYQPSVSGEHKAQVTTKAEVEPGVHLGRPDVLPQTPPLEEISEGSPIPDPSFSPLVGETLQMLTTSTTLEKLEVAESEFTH
Chain of Serine/threonine-protein kinase TAO3 (Homo sapiens) (Q9H2K8 whole entry, the tested form may be a part): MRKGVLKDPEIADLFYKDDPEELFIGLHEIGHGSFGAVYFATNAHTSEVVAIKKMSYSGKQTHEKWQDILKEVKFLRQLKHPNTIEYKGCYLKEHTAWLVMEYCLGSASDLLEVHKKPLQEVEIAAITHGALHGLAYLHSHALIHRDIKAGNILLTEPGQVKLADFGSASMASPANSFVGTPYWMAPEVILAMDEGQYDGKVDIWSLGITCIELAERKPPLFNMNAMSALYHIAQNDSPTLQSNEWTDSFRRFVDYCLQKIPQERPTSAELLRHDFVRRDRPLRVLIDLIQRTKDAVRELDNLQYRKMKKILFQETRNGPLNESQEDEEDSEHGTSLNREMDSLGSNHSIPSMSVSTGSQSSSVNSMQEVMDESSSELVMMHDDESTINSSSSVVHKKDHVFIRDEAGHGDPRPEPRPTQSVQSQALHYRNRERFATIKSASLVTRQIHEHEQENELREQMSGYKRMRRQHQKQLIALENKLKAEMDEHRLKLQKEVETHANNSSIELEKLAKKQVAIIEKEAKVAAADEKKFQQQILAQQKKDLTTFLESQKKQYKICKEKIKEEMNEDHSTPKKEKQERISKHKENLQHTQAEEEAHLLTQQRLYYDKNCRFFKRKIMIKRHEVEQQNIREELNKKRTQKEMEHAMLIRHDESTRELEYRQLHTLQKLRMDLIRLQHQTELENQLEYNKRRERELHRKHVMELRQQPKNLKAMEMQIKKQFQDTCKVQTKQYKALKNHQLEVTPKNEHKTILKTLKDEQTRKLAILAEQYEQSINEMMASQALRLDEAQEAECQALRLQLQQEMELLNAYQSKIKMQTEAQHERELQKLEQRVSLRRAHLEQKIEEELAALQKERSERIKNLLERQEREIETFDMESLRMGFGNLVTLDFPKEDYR
Chain of Fibroblast growth factor receptor 3 (Homo sapiens), P22607 [G697C] (P22607 whole entry G697C, the tested form may be a part): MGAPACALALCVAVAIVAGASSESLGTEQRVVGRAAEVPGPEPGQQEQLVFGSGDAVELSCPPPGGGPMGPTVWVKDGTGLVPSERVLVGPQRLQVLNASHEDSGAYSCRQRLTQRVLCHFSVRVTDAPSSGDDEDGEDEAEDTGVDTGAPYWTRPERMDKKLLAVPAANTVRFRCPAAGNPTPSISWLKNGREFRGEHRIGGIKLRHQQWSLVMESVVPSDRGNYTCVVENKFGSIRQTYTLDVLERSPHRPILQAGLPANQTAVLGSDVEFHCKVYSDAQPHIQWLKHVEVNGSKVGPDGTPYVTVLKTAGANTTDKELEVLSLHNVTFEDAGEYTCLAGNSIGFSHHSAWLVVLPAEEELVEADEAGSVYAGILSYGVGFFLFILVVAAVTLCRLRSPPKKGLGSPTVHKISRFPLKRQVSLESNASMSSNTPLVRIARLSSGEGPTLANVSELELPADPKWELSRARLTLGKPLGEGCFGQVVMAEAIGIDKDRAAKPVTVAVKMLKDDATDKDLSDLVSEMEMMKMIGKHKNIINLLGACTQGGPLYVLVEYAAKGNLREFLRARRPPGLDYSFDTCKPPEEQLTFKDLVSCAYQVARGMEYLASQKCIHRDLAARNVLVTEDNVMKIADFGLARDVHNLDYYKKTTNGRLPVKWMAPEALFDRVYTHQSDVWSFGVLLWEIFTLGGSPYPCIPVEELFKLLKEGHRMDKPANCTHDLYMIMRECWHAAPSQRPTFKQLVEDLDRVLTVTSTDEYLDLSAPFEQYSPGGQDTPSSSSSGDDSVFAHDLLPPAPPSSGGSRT
Chain of Insulin-like growth factor 1 receptor (Homo sapiens) (P08069 31-736 limits assumed): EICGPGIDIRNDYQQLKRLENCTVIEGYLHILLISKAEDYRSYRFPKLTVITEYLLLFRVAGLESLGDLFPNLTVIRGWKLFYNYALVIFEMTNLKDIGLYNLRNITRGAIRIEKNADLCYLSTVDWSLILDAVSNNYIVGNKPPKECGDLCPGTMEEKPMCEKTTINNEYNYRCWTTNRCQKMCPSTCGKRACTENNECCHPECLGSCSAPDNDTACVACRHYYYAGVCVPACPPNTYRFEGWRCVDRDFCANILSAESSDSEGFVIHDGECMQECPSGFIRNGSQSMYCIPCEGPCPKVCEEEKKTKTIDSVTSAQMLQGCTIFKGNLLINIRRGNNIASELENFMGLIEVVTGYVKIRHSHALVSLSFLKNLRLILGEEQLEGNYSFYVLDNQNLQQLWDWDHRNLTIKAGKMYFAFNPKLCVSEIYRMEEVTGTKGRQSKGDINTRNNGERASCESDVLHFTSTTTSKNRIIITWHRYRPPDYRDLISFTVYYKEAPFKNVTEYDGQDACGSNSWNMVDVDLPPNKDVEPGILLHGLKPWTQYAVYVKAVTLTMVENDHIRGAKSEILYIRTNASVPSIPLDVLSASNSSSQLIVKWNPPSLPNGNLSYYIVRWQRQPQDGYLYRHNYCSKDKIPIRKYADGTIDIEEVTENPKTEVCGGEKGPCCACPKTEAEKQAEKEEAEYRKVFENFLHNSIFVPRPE
Chain of Insulin-like growth factor 1 receptor (Homo sapiens) (P08069 741-1367 limits assumed): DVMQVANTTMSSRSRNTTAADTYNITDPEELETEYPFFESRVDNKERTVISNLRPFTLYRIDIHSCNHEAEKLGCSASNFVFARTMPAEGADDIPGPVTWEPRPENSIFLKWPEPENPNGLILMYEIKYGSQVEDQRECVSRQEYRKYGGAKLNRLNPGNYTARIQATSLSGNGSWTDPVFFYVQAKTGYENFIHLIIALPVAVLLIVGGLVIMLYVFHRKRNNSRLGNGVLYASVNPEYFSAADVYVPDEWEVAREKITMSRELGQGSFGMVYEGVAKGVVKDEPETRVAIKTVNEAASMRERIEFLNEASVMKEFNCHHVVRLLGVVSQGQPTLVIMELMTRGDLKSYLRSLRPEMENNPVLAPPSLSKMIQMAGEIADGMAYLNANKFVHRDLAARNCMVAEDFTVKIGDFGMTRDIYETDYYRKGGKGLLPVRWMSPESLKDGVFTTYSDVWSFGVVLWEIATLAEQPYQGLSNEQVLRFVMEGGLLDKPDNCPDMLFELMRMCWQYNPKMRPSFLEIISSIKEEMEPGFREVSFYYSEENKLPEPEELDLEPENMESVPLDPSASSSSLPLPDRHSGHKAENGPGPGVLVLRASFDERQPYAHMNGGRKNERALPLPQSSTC
Chain of Serine/threonine-protein kinase PLK2 (Homo sapiens) (Q9NYY3 whole entry, looked up, the tested form may be a part): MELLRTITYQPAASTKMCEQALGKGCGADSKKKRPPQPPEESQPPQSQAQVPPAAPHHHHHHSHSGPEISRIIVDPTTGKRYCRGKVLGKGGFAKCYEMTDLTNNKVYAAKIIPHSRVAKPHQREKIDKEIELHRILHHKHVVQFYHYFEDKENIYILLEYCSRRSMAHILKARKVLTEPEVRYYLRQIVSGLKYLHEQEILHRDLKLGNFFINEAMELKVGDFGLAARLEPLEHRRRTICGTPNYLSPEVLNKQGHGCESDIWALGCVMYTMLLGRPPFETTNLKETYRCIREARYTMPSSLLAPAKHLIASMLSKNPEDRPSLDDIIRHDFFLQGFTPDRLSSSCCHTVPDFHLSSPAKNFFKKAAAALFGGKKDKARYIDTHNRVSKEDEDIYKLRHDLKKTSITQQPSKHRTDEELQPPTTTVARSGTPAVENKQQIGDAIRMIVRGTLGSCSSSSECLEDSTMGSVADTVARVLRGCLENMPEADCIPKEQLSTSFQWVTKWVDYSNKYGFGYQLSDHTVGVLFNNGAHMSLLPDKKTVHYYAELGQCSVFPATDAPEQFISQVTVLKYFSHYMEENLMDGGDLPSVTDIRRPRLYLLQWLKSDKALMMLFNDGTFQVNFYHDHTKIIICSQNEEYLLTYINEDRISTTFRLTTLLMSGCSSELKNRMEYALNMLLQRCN
Chain of Bone morphogenetic protein receptor type-1A (Homo sapiens) (P36894 whole entry, the tested form may be a part): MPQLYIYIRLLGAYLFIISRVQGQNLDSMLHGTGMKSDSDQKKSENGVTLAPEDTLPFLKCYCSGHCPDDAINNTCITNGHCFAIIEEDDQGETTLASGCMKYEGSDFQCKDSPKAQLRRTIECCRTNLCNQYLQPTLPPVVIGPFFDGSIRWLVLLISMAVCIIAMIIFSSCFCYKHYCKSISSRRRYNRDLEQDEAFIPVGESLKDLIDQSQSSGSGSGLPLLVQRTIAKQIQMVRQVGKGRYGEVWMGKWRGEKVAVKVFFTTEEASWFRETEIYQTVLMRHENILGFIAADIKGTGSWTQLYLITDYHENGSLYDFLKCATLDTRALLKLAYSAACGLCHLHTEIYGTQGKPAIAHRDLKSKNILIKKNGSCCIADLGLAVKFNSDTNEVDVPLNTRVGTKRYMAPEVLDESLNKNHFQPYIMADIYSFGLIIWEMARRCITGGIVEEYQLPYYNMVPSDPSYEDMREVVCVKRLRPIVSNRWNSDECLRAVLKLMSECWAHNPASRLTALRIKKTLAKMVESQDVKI

`CC(C)N1C(=O)C(NCCCN(C)C)=C(c2cn(C)c3ccccc23)C1=O.Cl` gave an Activity [1] of 100%, an Activity [2] of 88% and an Activity [3] of 73%. The Activity [4] was 88%, the Activity [5] was 84% and the Activity [6] was 86%. For the same molecule, the Activity [7] was 79%, the Activity [8] was 100% and the Activity [9] was 100%. The Activity [10] was 89%, the Activity [11] was 80% and the Activity [12] was 83%. It also gave an Activity [13] of 98%, an Activity [14] of 100% and an Activity [15] of 84%. The IC50 (HL-60) was 450 nM, the Activity [16] was 79% and the Activity [17] was 100%. It also gave an Activity [18] of 88%, an Activity [19] of 100% and an Activity [20] of 97%. The Activity [21] was 100%, the Activity [22] was 96% and the Activity [23] was 100%. For the same molecule, the Activity [24] was 97%.
